In patent US9777005B2 (Takeda Pharmaceutical Company Limited, priority 2012, dated 2017):
pEC50: −log10 of the molar value.

Molecular target: T1, human M1 receptor (hCHRM1) (Homo sapiens, UniProt P11229)
T1 construct: expressed in transfected cells; host or cells: CHO-K1
T1 sequence (P11229 1-460): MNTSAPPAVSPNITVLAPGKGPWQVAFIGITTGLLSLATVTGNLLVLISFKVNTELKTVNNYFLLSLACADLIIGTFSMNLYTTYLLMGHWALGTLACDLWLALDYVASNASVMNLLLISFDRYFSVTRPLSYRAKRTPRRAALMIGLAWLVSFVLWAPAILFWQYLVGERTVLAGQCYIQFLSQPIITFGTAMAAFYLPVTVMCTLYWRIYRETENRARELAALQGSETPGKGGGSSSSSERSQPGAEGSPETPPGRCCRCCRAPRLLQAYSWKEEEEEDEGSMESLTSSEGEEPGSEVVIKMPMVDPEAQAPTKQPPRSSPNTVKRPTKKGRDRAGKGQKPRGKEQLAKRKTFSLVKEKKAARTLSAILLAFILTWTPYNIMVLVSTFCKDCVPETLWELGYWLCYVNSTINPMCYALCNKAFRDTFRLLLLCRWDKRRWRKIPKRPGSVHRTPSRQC
Experiment: Measurement of M1 receptor positive allosteric modulator (M1PAM) activity, calcium fluorescence (FLIPRtetra) in CHO-K1 cells in the presence of acetylcholine at EC20
Assay type: cell-based
Conditions: in the presence of acetylcholine at EC20 (final 0.6 nM), CHO-K1 cells expressing hCHRM1; for pEC50: inflection point of M1PAM activity, read-out: IP value; for activity (%) at 10 μM: test compound 10 μM
Outline: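 CHO-K1 cells expressing human M1 were loaded with Fluo-4 AM, and compound was added with acetylcholine at EC20 (final 0.6 nM). Calcium fluorescence was read on FLIPRtetra for 1 min. Activity was normalized to 1 μM acetylcholine (100%) and DMSO (0%), and the curve inflection point was reported as IP.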

Row | Compound | pEC50 | activity (%) at 10 μM
1 | Cn1cnc(-c2ccc(CN3Cc4ccnc(Oc5ccc(C(F)(F)F)cc5F)c4C3=O)cc2)c1 [Example 419, 4-(2-fluoro-4-(trifluoromethyl)phenoxy)-2-(4-(1-methyl-1H-imidazol-4-yl)benzyl)-1,2-dihydro-3H-pyrrolo[3,4-c]pyridin-3-one] | 8.14 | 102%
2 | Cc1ccc(Oc2nccc3c2C(=O)N(Cc2ccc(-c4ccn(C)n4)cc2)C3)c(F)c1 [Example 420, 4-(2-fluoro-4-methylphenoxy)-2-(4-(1-methyl-1H-pyrazol-3-yl)benzyl)-1,2-dihydro-3H-pyrrolo[3,4-c]pyridin-3-one] | 7.41 | 101%
3 | Cc1cc(C(F)(F)F)cc(F)c1Oc1nccc2c1C(=O)N(Cc1ccc(-c3ccn(C)n3)cc1)C2 [Example 421, 4-(2-fluoro-6-methyl-4-(trifluoromethyl)phenoxy)-2-(4-(1-methyl-1H-pyrazol-3-yl)benzyl)-1,2-dihydro-3H-pyrrolo[3,4-c]pyridin-3-one] | 7.41 | 112%
4 | NC(=O)c1ccc(CN2Cc3ccnc(Oc4ccc(C(F)(F)F)cc4F)c3C2=O)cc1 [Example 422, 4-((4-(2-fluoro-4-(trifluoromethyl)phenoxy)-3-oxo-1,3-dihydro-2H-pyrrolo[3,4-c]pyridin-2-yl)methyl)benzamide] | 7.92 | 107%
5 | C[C@@H](O)[C@@H](C)Oc1nccc2c1C(=O)N(Cc1ccc(Cl)cc1)C2 [Example 423, 2-(4-chlorobenzyl)-4-(((2R,3R)-3-hydroxybutan-2-yl)oxy)-1,2-dihydro-3H-pyrrolo[3,4-c]pyridin-3-one] | 7.05 | 96%
6 | C[C@@H](O)[C@@H](C)Oc1nccc2c1C(=O)N(Cc1ccc(F)cc1F)C2 [Example 424, 2-(2,4-difluorobenzyl)-4-(((2R,3R)-3-hydroxybutan-2-yl)oxy)-1,2-dihydro-3H-pyrrolo[3,4-c]pyridin-3-one] | 7.06 | 106%
7 | C[C@@H](O)[C@@H](C)Oc1nccc2c1C(=O)N(Cc1c(F)cc(F)cc1F)C2 [Example 425, 4-(((2R,3R)-3-hydroxybutan-2-yl)oxy)-2-(2,4,6-trifluorobenzyl)-1,2-dihydro-3H-pyrrolo[3,4-c]pyridin-3-one] | 7.07 | 102%
8 | C[C@@H](O)[C@@H](C)Oc1nccc2c1C(=O)N(Cc1ccc(-c3ccn(C)n3)cc1)C2 [Example 426, 4-(((2R,3R)-3-hydroxybutan-2-yl)oxy)-2-(4-(1-methyl-1H-pyrazol-3-yl)benzyl)-1,2-dihydro-3H-pyrrolo[3,4-c]pyridin-3-one] | 8.06 | 102%
9 | Cc1ccc(Oc2nccc3c2C(=O)N(Cc2ccc(-n4cnc(C)c4)cc2)C3)c(F)c1 [Example 427, 4-(2-fluoro-4-methylphenoxy)-2-(4-(4-methyl-1H-imidazol-1-yl)benzyl)-1,2-dihydro-3H-pyrrolo[3,4-c]pyridin-3-one] | 7.51 | 111%
10 | Cc1cc(F)c(Oc2nccc3c2C(=O)N(Cc2ccc(-n4cnc(C)c4)cc2)C3)c(F)c1 [Example 428, 4-(2,6-difluoro-4-methylphenoxy)-2-(4-(4-methyl-1H-imidazol-1-yl)benzyl)-1,2-dihydro-3H-pyrrolo[3,4-c]pyridin-3-one] | 7.85 | 106%
11 | CCc1cc(F)c(Oc2nccc3c2C(=O)N(Cc2ccc(-n4cnc(C)c4)cc2)C3)c(F)c1 [Example 429, 4-(4-ethyl-2,6-difluorophenoxy)-2-(4-(4-methyl-1H-imidazol-1-yl)benzyl)-1,2-dihydro-3H-pyrrolo[3,4-c]pyridin-3-one] | 7.96 | 109%
12 | CCc1cc(F)c(Oc2nccc3c2C(=O)N(Cc2ccc(-c4ccn(C)n4)cc2)C3)c(F)c1 [Example 430, 4-(4-ethyl-2,6-difluorophenoxy)-2-(4-(1-methyl-1H-pyrazol-3-yl)benzyl)-1,2-dihydro-3H-pyrrolo[3,4-c]pyridin-3-one] | 7.77 | 110%
13 | CNC(=O)c1ccc(CN2Cc3ccnc(Oc4ccc(C(F)(F)F)cc4F)c3C2=O)cc1 [Example 431, 4-((4-(2-fluoro-4-(trifluoromethyl)phenoxy)-3-oxo-1,3-dihydro-2H-pyrrolo[3,4-c]pyridin-2-yl)methyl)-N-methylbenzamide] | 8.17 | 103%
14 | CCNC(=O)c1ccc(CN2Cc3ccnc(Oc4ccc(C(F)(F)F)cc4F)c3C2=O)cc1 [Example 432, N-ethyl-4-((4-(2-fluoro-4-(trifluoromethyl)phenoxy)-3-oxo-1,3-dihydro-2H-pyrrolo[3,4-c]pyridin-2-yl)methyl)benzamide] | 7.28 | 92%
15 | CNC(=O)c1ccc(CN2Cc3ccnc(Oc4ccc(C)cc4F)c3C2=O)cc1 [Example 433, 4-((4-(2-fluoro-4-methylphenoxy)-3-oxo-1,3-dihydro-2H-pyrrolo[3,4-c]pyridin-2-yl)methyl)-N-methylbenzamide] | 8.00 | 101%
16 | CCNC(=O)c1ccc(CN2Cc3ccnc(Oc4ccc(C)cc4F)c3C2=O)cc1 [Example 434, N-ethyl-4-((4-(2-fluoro-4-methylphenoxy)-3-oxo-1,3-dihydro-2H-pyrrolo[3,4-c]pyridin-2-yl)methyl)benzamide] | 7.59 | 95%

Further lines, results first:

Row | pEC50 | activity (%) at 10 μM | Compound
17 | 7.52 | 102% | CNC(=O)c1ccc(CN2Cc3ccnc(Oc4ccc(C(F)(F)F)cc4F)c3C2=O)cc1F [Example 435, 2-fluoro-4-((4-(2-fluoro-4-(trifluoromethyl)phenoxy)-3-oxo-1,3-dihydro-2H-pyrrolo[3,4-c]pyridin-2-yl)methyl)-N-methylbenzamide]
18 | 7.39 | 106% | CCNC(=O)c1ccc(CN2Cc3ccnc(Oc4ccc(C(F)(F)F)cc4F)c3C2=O)cc1F [Example 436, N-ethyl-2-fluoro-4-((4-(2-fluoro-4-(trifluoromethyl)phenoxy)-3-oxo-1,3-dihydro-2H-pyrrolo[3,4-c]pyridin-2-yl)methyl)benzamide]
19 | 7.11 | 98% | CNC(=O)c1ccc(CN2Cc3ccnc(Oc4ccc(C)cc4F)c3C2=O)cc1F [Example 437, 2-fluoro-4-((4-(2-fluoro-4-methylphenoxy)-3-oxo-1,3-dihydro-2H-pyrrolo[3,4-c]pyridin-2-yl)methyl)-N-methylbenzamide]
20 | 7.85 | 101% | NC(=O)c1ccc(CN2Cc3ccnc(Oc4ccc(C(F)(F)F)cc4F)c3C2=O)cc1F [Example 438, 2-fluoro-4-((4-(2-fluoro-4-(trifluoromethyl)phenoxy)-3-oxo-1,3-dihydro-2H-pyrrolo[3,4-c]pyridin-2-yl)methyl)benzamide]
21 | 7.89 | 96% | CNC(=O)c1ccc(CN2Cc3cccc(Oc4ccc(C(F)(F)F)cc4F)c3C2=O)cc1 [Example 439, 4-((7-(2-fluoro-4-(trifluoromethyl)phenoxy)-1-oxo-1,3-dihydro-2H-isoindol-2-yl)methyl)-N-methylbenzamide]
22 | 7.15 | 100% | Cc1ccc(Oc2nccc3c2C(=O)N(Cc2ccc(C(N)=O)c(F)c2)C3)c(F)c1 [Example 440, 2-fluoro-4-((4-(2-fluoro-4-methylphenoxy)-3-oxo-1,3-dihydro-2H-pyrrolo[3,4-c]pyridin-2-yl)methyl)benzamide]
23 | 7.36 | 100% | CCNC(=O)c1ccc(CN2Cc3ccnc(Oc4ccc(C)cc4F)c3C2=O)c(F)c1 [Example 441, N-ethyl-3-fluoro-4-((4-(2-fluoro-4-methylphenoxy)-3-oxo-1,3-dihydro-2H-pyrrolo[3,4-c]pyridin-2-yl)methyl)benzamide]
24 | 7.42 | 100% | CNC(=O)c1ccc(CN2Cc3ccnc(Oc4ccc(Br)cc4F)c3C2=O)cc1F [Example 442, 4-((4-(4-bromo-2-fluorophenoxy)-3-oxo-1,3-dihydro-2H-pyrrolo[3,4-c]pyridin-2-yl)methyl)-2-fluoro-N-methylbenzamide]
25 | 7.51 | 101% | CCc1ccc(Oc2nccc3c2C(=O)N(Cc2ccc(C(=O)NC)c(F)c2)C3)c(F)c1 [Example 443]
26 | 7.77 | 100% | CCc1ccc(Oc2nccc3c2C(=O)N(Cc2ccc(C(=O)NC)cc2)C3)c(F)c1 [Example 444, 4-((4-(4-ethyl-2-fluorophenoxy)-3-oxo-1,3-dihydro-2H-pyrrolo[3,4-c]pyridin-2-yl)methyl)-N-methylbenzamide]
27 | 7.55 | 100% | CCc1ccc(Oc2nccc3c2C(=O)N(Cc2ccc(C(N)=O)c(F)c2)C3)c(F)c1 [Example 445, 4-((4-(4-ethyl-2-fluorophenoxy)-3-oxo-1,3-dihydro-2H-pyrrolo[3,4-c]pyridin-2-yl)methyl)-2-fluorobenzamide]
